± gives the standard deviation of the averaged measurements.
Assays:
Assay in all cases: level (log10 ratio to DMSO vehicle control); higher = higher biomarker level / cell amount than vehicle control
Conditions in all cases: in DMSO
[1] = compound: C=CC(=O)OCCC(F)(F)C(F)(F)C(F)(F)C(F)(F)F [2-(Perfluorobutyl)ethyl acrylate]
Procedure: (§1)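 BioMAP Diversity Plus panel of 12 human primary cell co-culture systems (3C, 4H, LPS, SAg, BT, BF4T, BE3C, CASM3C, HDF3CGF, KF3CT, MyoF, Mphg). Compounds were added 1 h before stimulation and left for 24 h (MyoF 48 h; BT 72 h for soluble read-outs or 6 d for IgG). Biomarkers were read by ELISA, cytotoxicity by SRB, PBMC viability and proliferation by Alamar Blue. Each well value was divided by the mean of 8 DMSO control wells on the same plate and log10 transformed; duplicate blinded samples were tested at 4 concentrations.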

[2] = compound: CNS(=O)(=O)C(F)(F)C(F)(F)C(F)(F)C(F)(F)C(F)(F)C(F)(F)C(F)(F)C(F)(F)F [N-Methylperfluorooctanesulfonamide]
Procedure: as §1

[3] = compound: FC(F)(F)C(F)(F)C(F)(F)C(F)(F)C(F)(F)C(F)(F)C(F)(F)CCI [1-Iodo-1H,1H,2H,2H-perfluorononane]
Procedure: as §1

[4] = compound: N=C(N)C(F)(F)C(F)(F)C(F)(F)C(F)(F)C(F)(F)C(F)(F)C(F)(F)F [Perfluorooctanamidine]
Procedure: as §1

[5] = compound: O=C(O)C(F)(F)OC(F)(F)C(F)(F)OC(F)(F)C(F)(F)C(F)(F)C(F)(F)F [Perfluoro-3,6-dioxadecanoic acid]
Procedure: as §1

[6] = compound: O=C(O)CCC(F)(F)C(F)(F)C(F)(F)F [3:3 Fluorotelomer carboxylic acid]
Procedure: as §1

[7] = compound: OCC(F)(F)C(F)(F)C(F)(F)C(F)(F)C(F)(F)C(F)F [1H,1H,7H-Dodecafluoro-1-heptanol]
Procedure: as §1

| Test System | level (log10) ([1]; 6700 nM) | level (log10) ([1]; 20000 nM) | level (log10) ([1]; 60000 nM) | level (log10) ([2]; 6700 nM) | level (log10) ([2]; 20000 nM) | level (log10) ([2]; 60000 nM) | level (log10) ([3]; 6700 nM) | level (log10) ([3]; 20000 nM) | level (log10) ([4]; 6700 nM) | level (log10) ([4]; 20000 nM) | level (log10) ([4]; 60000 nM) | level (log10) ([5]; 6700 nM) | level (log10) ([5]; 20000 nM) | level (log10) ([5]; 60000 nM) | level (log10) ([6]; 6700 nM) | level (log10) ([6]; 20000 nM) | level (log10) ([6]; 60000 nM) | level (log10) ([7]; 6700 nM) | level (log10) ([7]; 20000 nM) | level (log10) ([7]; 60000 nM) |
| --- | --- | --- | --- | --- | --- | --- | --- | --- | --- | --- | --- | --- | --- | --- | --- | --- | --- | --- | --- | --- |
| 4H:VEGFR2 | 0.01 | -0.006 ± 0.017 | -0.0035 ± 0.037 | -0.0425 ± 0.032 | -0.096 ± 0.0085 | -0.0995 ± 0.00071 | -0.0015 ± 0.026 | 0.0225 ± 0.06 | -0.0135 ± 0.023 | -0.023 ± 0.025 | 0.064 | -0.035 ± 0.065 | -0.0105 ± 0.035 | -0.0755 ± 0.036 | -0.0045 ± 0.0078 | -0.0135 ± 0.011 | 0.0075 ± 0.063 | -0.011 ± 0.044 | 0.0075 ± 0.061 | 0.014 ± 0.03 |
| BF4T:tPA | 0.0005 ± 0.023 | -0.035 ± 0.023 | -0.0325 ± 0.00071 | 0.0145 ± 0.011 | 0.0325 ± 0.03 | 0.0515 ± 0.019 | 0.0185 ± 0.0064 | -0.0135 ± 0.0064 | 0.004 ± 0.014 | -0.027 ± 0.069 | 0.028 | -0.051 ± 0.0014 | -0.0565 ± 0.026 | 0.0105 ± 0.05 | 0.004 ± 0.031 | -0.0005 ± 0.015 | 0.015 ± 0.0099 | 0.0045 ± 0.0078 | -0.0025 ± 0.00071 | 0.01 ± 0.011 |
| BF4T:Keratin 8/18 | -0.003 ± 0.055 | 0.0035 ± 0.059 | 0.0085 ± 0.036 | -0.02 ± 0.0042 | -0.0185 ± 0.013 | 0.0135 ± 0.023 | -0.016 ± 0.052 | -0.0135 ± 0.0092 | -0.012 ± 0.0057 | -0.0165 ± 0.016 | 0.039 | -0.0125 ± 0.0064 | -0.0225 ± 0.011 | 0.004 ± 0.033 | 0.004 ± 0.024 | -0.006 ± 0.0042 | 0.0135 ± 0.015 | -0.0025 ± 0.0021 | -0.0055 ± 0.012 | 0.004 ± 0.014 |
| SAg:CCL2/MCP-1 | -0.0205 ± 0.012 | -0.083 ± 0.0057 | -0.141 ± 0.035 | -0.0205 ± 0.0035 | -0.003 ± 0.011 | -0.004 ± 0.0085 | -0.0145 ± 0.0078 | -0.0025 ± 0.049 | -0.004 ± 0.0014 | 0.0225 ± 0.005 | -0.015 | 0.017 ± 0.088 | -0.0255 ± 0.00071 | -0.0895 ± 0.026 | 0.005 ± 0.0014 | -0.0145 ± 0.016 | 0.0145 ± 0.028 | 0.0005 ± 0.005 | -0.0035 ± 0.00071 | 0.0225 ± 0.029 |
| 4H:CD87/uPAR | -0.005 ± 0.038 | 0.0055 ± 0.0035 | 0.025 ± 0.0085 | -0.012 ± 0.12 | -0.0565 ± 0.071 | -0.046 ± 0.044 | 0.0135 ± 0.00071 | 0.0025 ± 0.026 | 0.0455 ± 0.097 | 0.055 ± 0.028 | 0.146 | -0.004 ± 0.0099 | -0.004 ± 0.0085 | -0.0175 ± 0.037 | 0.001 ± 0.027 | -0.014 ± 0.0071 | -0.045 ± 0.011 | 0.016 ± 0.014 | 0.001 ± 0.014 | -0.019 ± 0.031 |
| BF4T:CCL2/MCP-1 | -0.009 ± 0.013 | -0.01 ± 0.0028 | -0.0325 ± 0.029 | -0.022 ± 0.011 | -0.049 ± 0.025 | -0.0785 ± 0.083 | -0.0135 ± 0.015 | -0.0245 ± 0.066 | 0.031 ± 0.0099 | 0.025 ± 0.045 | 0.06 | -0.175 ± 0.031 | -0.095 ± 0.016 | -0.16 ± 0.052 | -0.0025 ± 0.0021 | -0.018 ± 0.0014 | -0.01 ± 0.041 | 0.022 ± 0.05 | 0.0085 ± 0.057 | 0.009 ± 0.02 |
| SAg:CD40 | -0.0225 ± 0.0064 | -0.0405 ± 0.0035 | -0.153 ± 0.018 | -0.016 ± 0.02 | -0.0415 ± 0.012 | -0.0695 ± 0.025 | -0.006 ± 0.021 | -0.0065 ± 0.0092 | -0.0055 ± 0.0021 | 0.014 ± 0.023 | -0.093 | 0.003 ± 0.0028 | -0.0195 ± 0.016 | -0.08 ± 0.052 | -0.002 ± 0.0071 | -0.008 ± 0.011 | -0.015 ± 0.0042 | 0.015 ± 0.0099 | 0 ± 0.018 | -0.0015 ± 0.005 |
